Patent EP0046377A1, “Cycloalkenylcarboxamido derivatives of tetramisole, their preparation and use in medicine” (BEECHAM GROUP PLC, priority 1980, dated 1982)
Structures can show the parent of a compound that is named as a salt.

What was measured:
Assay type in all cases: in vivo
Nematospiroides dubius = experiment: Oral administration to mice infected with Nematospiroides dubius; % reduction in worm numbers versus untreated infected controls; details: % reduction in numbers of worms vs untreated infected controls; for inhibition in vivo at 5 mg/kg / inhibition in vivo at 50 mg/kg: Heligmosomoides polygyrus
Procedure: The compounds of Examples 1 to 15 were each administered orally to mice infected with Nematospiroides dubius at various dosages. Activity was calculated as % reduction in the numbers of worms in treated as opposed to control (untreated, infected) animals.

Sheep Roundworms = experiment: Activity against sheep roundworms (mixed roundworm infection)
Procedure: (§1) A single subcutaneous injection of 5 mg/kg of the laevo amide of Example 12a, as a solution of its hydrochloride (in a mixture of propylene glycol, 70%; benzyl alcohol, 4%; and made up to 100% with water), to a sheep with a mixed roundworm infection, removed >99.9% of all worms present and was 100% active against lungworm.

Fluke = experiment: Test to demonstrate fluke activity in an artificially infected sheep; details: sheep infected with 100 metacercariae, treated orally at 30 mg/kg 4-5 months later
Procedure: A sheep was artificially infected with 100 metacercariae and 4 - 5 months later was treated, orally, with 6-[3-(3-cyclohexen-1-ylcarboxamido)-phenyl7-2,3,5,6-tetrahydroimidazo [2,1-b]thiazole at 30 mg/kg.

hookworm = experiment: Activity against dog parasites: hookworm; details: single oral dose of 7.5 mg/kg
Procedure: (§2) A single oral dose of 7.5 mg/kg of the laevo amide of Example 12a to a dog was 100% effective against ascarids, hookworm and whipworm.

ascarids = experiment: Activity against dog parasites: ascarids; details: single oral dose of 7.5 mg/kg
Procedure: as §2

adult Brugia pahangi = experiment: Activity against Brugia pahangi in the cat (macrofilaricidal activity); details: five daily doses at 5 mg/kg s.c.
Procedure: Five daily doses of the laevo amide of Example 12a administered at 5 mg/kg s.c. to a cat infected with adult Brugia pahangi was 100% effective against this parasite.

whipworm = experiment: Activity against dog parasites: whipworm; details: single oral dose of 7.5 mg/kg
Procedure: as §2

lungworm = experiment: Activity against lungworm in a sheep with mixed roundworm infection; details: single subcutaneous injection of 5 mg/kg, solution of hydrochloride
Procedure: as §1

Compound	inhibition in vivo at 5 mg/kg (Nematospiroides dubius; Dose 5 mg/kg) [%]	inhibition in vivo at 50 mg/kg (Nematospiroides dubius; Dose 50 mg/kg) [%]	other results
O=C(Nc1cccc(C2CN3CCSC3=N2)c1)C1=CCC=CC1 (stereo not shown) [Example 3]			Activity % (Nematospiroides dubius; Dose 5 mg/kg): 58%; Activity % (Nematospiroides dubius; Dose 50 mg/kg): 100%
O=C(Nc1cccc(C2CN3CCSC3=N2)c1)C1C=CCCC1 (stereo not shown) [Example 5]	65	100	
O=C(Nc1cccc(C2CN3CCSC3=N2)c1)C1=CCCCC1 (stereo not shown) [Example 9]	76	99	
CC1(C)C=C(C(=O)Nc2cccc(C3CN4CCSC4=N3)c2)C=CC1 (stereo not shown) [Example 2, 6-[3-(3,3-dimethyl-1,5-cyclohexadien-1-ylcarboxamido)phenyl]-2,3,5,6-tetrahydroimidazo[-2,1-b]thiazole hydrochloride]	57	99	
O=C(Nc1cccc(C2CN3CCSC3=N2)c1)C1CC=CC1 (stereo not shown) [Example 11]	84	100	
O=C(Nc1cccc(C2CN3C=CSC3=N2)c1)C1CC=CCC1 (stereo not shown) [Example 15]	71	100	
O=C(Nc1cccc(C2CN3CCSC3=N2)c1)C1=CCCCCC1 (stereo not shown) [Example 10]	90	100	
O=C(Nc1cccc(C2CN3CCSC3=N2)c1)C1CC=CCC1 (racemic) [Example 1]	55	99	removal of roundworms (Sheep Roundworms; single oral dose of 15 mg/kg, aqueous solution of hydrochloride salt): removed all roundworms present; activity (post-mortem fluke worm counts) (Fluke): > 95%; Fluke egg counts (Fluke; 3-4 days after dosing): zero
CC1C=CCC(C(=O)Nc2cccc(C3CN4CCSC4=N3)c2)C1 (stereo not shown) [Example 8]	59	99	
O=C(Nc1cccc(C2CN3CCSC3=N2)c1)C1CC=CCC1 (stereo not drawn) [Example 14a, 6-[3-(3-cyclohexen-1-ylcarboxamido)phenyl] -2,3,5,6-tetrahydroimidazo[2,l-b]thiazole]			effective against hookworm (hookworm): 100%; worms removed (Sheep Roundworms; single subcutaneous injection of 5 mg/kg, solution of hydrochloride in propylene glycol 70%/benzyl alcohol 4%/water): > 99.9%; effective against ascarids (ascarids): 100%; effective against Brugia pahangi (adult Brugia pahangi): 100%; Activity % (Nematospiroides dubius; Dose 2.5 mg/kg): 100%; Activity % (Nematospiroides dubius; Dose 10 mg/kg): 100%; effective against whipworm (whipworm): 100%; active against lungworm (lungworm): 100%
O=C(Nc1cccc(C2CN3CCSC3=N2)c1)C1=CC2(CC=C1)CCCC2 (stereo not shown) [Example 6]	45	100	
O=C(Nc1cccc(C2CN3CCSC3=N2)c1)C1C=CCC1 (stereo not shown) [Example 4, 6-[3-(2-cyclopenten-1-ylcarboxamido)phenyl]-2,3,5,6-tetrahydroimidazo[2,1-b]thiazole]	100	100	
O=C(Nc1cccc(C2CN3CCSC3=N2)c1)C1=CC2(CC=CCC2)CC=C1 (stereo not shown) [Example 12]	19	94	
CC1C=CCCC1C(=O)Nc1cccc(C2CN3CCSC3=N2)c1 (stereo not shown) [Example 7]	55	100	
